The record followed here is patent publication US12390470B2, “1-methylxanthine-based bioactive composition and method of use thereof” (Ingenious Ingredients, LP, priority 2021, dated 2025).

Common to all, as to assay type: in vivo
For experiment [1], the system named is male Swiss Albino mice. The experiment is described as follows: Treadmill endurance test. The procedure:
(§1) Twenty-four 8-week-old male Swiss Albino mice were housed in an animal room at a constant temperature (22±3° C.) and humidity (30%-70%) under a 12:12 h light-dark cycle with standard laboratory diet (Purina 5L79, Rat and Mouse 18% protein; PMI Nutrition International, Brentwood, MO, USA). Distilled water was provided ad libitum. All animal experiments were reviewed and approved by the Institutional Animal Ethical Committee (IAEC) of Radiant Research Services Pvt. Ltd (Bangalore, India). All research was conducted in accordance with the guidelines of the committee for the purpose of control and supervision of experiments on animals.
(§2) After one week of acclimation, the animals were randomly divided by body weight into three groups (n=8 per group in each test) for oral treatment once a day, at approximately same time each day (±1 hour), for 28 consecutive days: (1) vehicle control or (2) 1-methylxanthine or (3) 1-methylxanthine plus paraxanthine. The dose administered to the mice was calculated using US Food and Drug Administration for human equivalence doses (HED), assuming a human weight of 60 kg. The following HED was used in this study: 100 mg 1-methylxanthine (Ingenious Ingredients, L.P Lewisville, TX, USA; mouse dose: 20.5 mg/kg bw/day), or 100 mg 1-methylxanthine (Ingenious Ingredients, L.P Lewisville, TX, USA; mouse dose: 20.5 mg/kg bw/day) plus 100 mg paraxanthine (ENFINITY™, Ingenious Ingredients, L.P Lewisville, TX, USA; mouse dose: 20.5 mg/kg bw/day). 0.5% Carboxy Methyl Cellulose sodium was used as vehicle and the test item formulations were prepared daily. Dosing was conducted via oral gavage using disposable polypropylene syringes with sterilized stainless steel gavage tubes. Food intake was monitored daily while water intake was ad libitum. BW was recorded weekly. […]
On 28th day of each respective treatment, all animals were subjected to a muscle endurance test. […] Distance traveled (cm) was measured as a marker of exercise performance.

Experiment [2] concerns Brain-derived neurotrophic factor (BDNF). The experiment is described as follows: BDNF level in young and old rats. The procedure:
as §1, with “young (6-8 Week) and twenty-four old (14-16 Months)” for “8-week-old male”, “Wistar rats” for “mice”
After one week of acclimation, the animals were randomly divided by body weight and age into six groups (n=8 per group in each test) for oral treatment once a day, at approximately same time each day (±1 hour), for 10 consecutive days: (1) vehicle control or (2) 1-methylxanthine or (3) 1-methylxanthine plus paraxanthine. The dose administered to the rat was calculated using US Food and Drug Administration for human equivalence doses (HED), assuming a human weight of 60 kg. […] Food intake was monitored daily while water intake was ad libitum. […] Body weight was recorded weekly. […]

For experiment [3], the system named is male Swiss Albino mice. The experiment is described as follows: Forelimb grip strength test. As for the experimental part: as §1
as §2, with “Dosing was conducted via oral gavage using disposable polypropylene syringes with sterilized stainless steel gavage tubes.” left out
The forelimb grip strength was measured on day 0 and day 28 by using a stainless-steel grill to assess muscle strength (Orchid Scientific & Innovative India Pvt Ltd, India). Grip strength was measured one hour after treatment. […] Each animal performed three independent trials and the mean of the three trials was calculated and recorded.

Turning to `Cn1c(=O)[nH]c2nc[nH]c2c1=O` [1-methylxanthine, 1-Methyl-3H-purine-2,6-dione], the “Distance travelled on treadmill” value in the experiment on male Swiss Albino mice [1] (baseline) is reported as 269.6±33.0 cm; with male Swiss Albino mice [1] (day 28, oral 20.5 mg/kg bw/day each, 28 days), 1,641.3±74.6 cm. Moreover, the “changes in treadmill performance greater than control” value in the experiment on male Swiss Albino mice [1] (baseline to day 28) was 10.0%. In addition, the BDNF levels in experiment [2] (old rats) is 793.81 ± 33.85 pg/mL; in experiment [2] (young rats), 869.04 ± 32.79 pg/mL. Besides, the Forelimb grip strength in the experiment on male Swiss Albino mice [3] (baseline) came to 91.1±1.3 gf; with male Swiss Albino mice [3] (day 28, oral 20.5 mg/kg bw/day each, 28 days, with exercise training), 126.9±6.0 gf. Further, the “changes in strength greater than control” value in the experiment on male Swiss Albino mice [3] (baseline to day 28) came to 15.9%.
